Tested on: HCV genotype 1b replicon cells (Huh-luc)
Assay: HCV 1b replicon combination study (luciferase, MacSynergy II analysis)
Format: cell-based
Settings: for Interaction: combination of Compound 1 and Compound 2, MacSynergy II
Experimental: HCV genotype 1b replicon cells (Huh-luc) were obtained from Reblikon (Mainz, Germany). The replicon in these cells is designated I389luc-ubi-neo/NS3-3′/ET and encodes a selectable resistance marker (neomycin phosphotransferase) as well as the firefly luciferase reporter gene. Huh-luc cells were maintained in Dulbecco's Modified Eagle's Medium (DMEM; GIBCO, Carlsbad, Calif.) supplemented with 10% fetal bovine serum (FBS; Hyclone, Logan, Utah) and 0.5 mg/mL of G-418 (GIBCO). Cells were passaged twice a week and maintained at subconfluent levels.
Replicon cells were seeded in 96-well plates at a density of 5×10^3 cells per well in 100 μL of DMEM culture medium, excluding G-418. Compounds 1 and 2 were serially diluted 1:3 in 100% DMSO (Sigma). These serial dilutions were added to the cells at a 1:200 dilution to achieve a final concentration of 0.5% DMSO in a total volume of 200 μL. Plates were incubated at 37° C. for 3 days, after which culture media were removed and cells were lysed and assayed for luciferase activity using a commercial luciferase assay (Promega, Madison, Wis.). HCV replication levels in drug-treated samples were expressed as a percentage of those in untreated controls (defined as 100%), and data were fit to the logistic dose response equation y=a/(1+(x/b)c) using XLFit4 software (IDBS, Emeryville, Calif.). EC50 values were calculated from the resulting equations as described previously (Delaney, W. E., et al., Antimicrobial Agents Chemotherapy, 45(6):1705-1713 (2001)). Replicon cells were seeded in 96-well plates at a density of 5×10^3 cells per well in 100 μL of culture medium. Compounds 1 and 2 were serially diluted in 100% DMSO as described above and added in a matrix format to 96-well plates, achieving a defined set of different drug concentrations and ratios in a final volume of 200 μL and a final DMSO concentration of 0.5%. […] Cells were incubated for three days and analyzed for luciferase expression as indicated above. […]
The calculated volumes of surface deviations are expressed in nM^2%. […]

Compound | Interaction | Antagonism Volume (in combination with Compound 1, 3 days, mean ± SD of two or three independent experiments in triplicate) [nM^2]
Fc1ccccc1-c1nc2ccn(Cc3ccc(-c4ccc(C(F)(F)F)cc4C(F)(F)F)nn3)cc-2n1 [Compound 1, 5-({6-[2,4-bis(trifluoromethyl)phenyl]pyridazin-3-yl}methyl)-2-(2-fluorophenyl)-5H-imidazo[4,5-c]pyridine] | moderate synergistic interaction | 
CC(C)(C)NC(=O)N[C@H](C(=O)N1C[C@H]2[C@@H]([C@H]1C(=O)NC(CC1CCC1)C(=O)C(N)=O)C2(C)C)C(C)(C)C (stereo partly drawn) [Compound 2, (1R,2S,5S)-3-[N-(N-tert-Butylcarbamoyl)-3-methyl-L-valyl]-N-(2-cyclobutyl-1-oxamoylethyl)-6,6-dimethyl-3-azabicyclo[3.1.0]hexane-2-carboxamide] | Moderate synergy | −8.0 ± 13.6

From patent publication US20100324060A1, “PHARMACEUTICAL COMPOSITIONS USEFUL FOR TREATING HCV” (Gilead Sciences, Inc., priority 2009, published 2010)
